Results taken from US20090312396A1, “METHODS FOR CANCER TREATMENT USING TAK1 INHIBITORS” (AstraZeneca AB, priority 2006, published 2009).
Read-outs that look alike come from different tables or passages of the source.

Columns and labels:
[1] = tested on: AM0-1; assay: AlamarBlue proliferation assay, GI50; assay type: cell-based; conditions: Homo sapiens, 72 hours, Table 5, read-out: GI50 AM0-1 plasmacytoma
Protocol: (§1) The TAK1 inhibitors are known in the art (see for example, WO 2003010158, WO 2003010163 and WO2004063186 the disclosures of which are incorporated by reference herein). All cell lines were plated at 10,000 cells/well in flat-bottomed 96 well plates and dosed with test compounds in triplicate over a 10 point dosing range from 0 to 30 μmolesL^−1. All cell lines were incubated with test compounds for a total of 72 hours. Background levels were determined for a control (undosed) plate within 2 hours of dosing test compounds. Following the dosing period, the extent of proliferation was measured by adding 1/10 (vol/vol) AlamarBlue reagent to every well and incubating the plates for a further 4 hours. The reaction was stopped by the addition of SDS to a final concentration of 0.1%. Fluorescence was measured at 545 nm (excitation) and 600 nm (emission). Growth inhibition 50 (GI50) values were determined for each test compound across the panel.
(§2) The experiments to generate the results for both Tables 5 and 6 were performed as described above.

[2] = tested on: L-363; assay: AlamarBlue proliferation assay, GI50; assay type: cell-based; conditions: Homo sapiens, 72 hours, Table 5, read-out: GI50 L-363 plasma cell leukemia
Protocol: as §1, §2

[3] = tested on: WSU DLCL2; assay: AlamarBlue proliferation assay, GI50; assay type: cell-based; conditions: Homo sapiens, WSUDLCL2, 72 hours, Table 6, read-out: GI50 WSU DLCL2 B cell lymphoma
Protocol: as §1, §2

[4] = tested on: IM-9; assay: AlamarBlue proliferation assay, GI50; assay type: cell-based; conditions: Homo sapiens, 72 hours, Table 5, read-out: GI50 IM-9 B lymph
Protocol: as §1, §2

[5] = tested on: DERL 2; assay: AlamarBlue proliferation assay, GI50; assay type: cell-based; conditions: Homo sapiens, T-cell, 72 hours, Table 6, read-out: GI50 DERL 2 T cell lymphoma
Protocol: as §1, §2

[6] = biological target: T1, TAK1 (Homo sapiens, UniProt O43318); assay: TAK1 enzyme inhibition; assay type: biochemical
T1 sequence (O43318 1-606): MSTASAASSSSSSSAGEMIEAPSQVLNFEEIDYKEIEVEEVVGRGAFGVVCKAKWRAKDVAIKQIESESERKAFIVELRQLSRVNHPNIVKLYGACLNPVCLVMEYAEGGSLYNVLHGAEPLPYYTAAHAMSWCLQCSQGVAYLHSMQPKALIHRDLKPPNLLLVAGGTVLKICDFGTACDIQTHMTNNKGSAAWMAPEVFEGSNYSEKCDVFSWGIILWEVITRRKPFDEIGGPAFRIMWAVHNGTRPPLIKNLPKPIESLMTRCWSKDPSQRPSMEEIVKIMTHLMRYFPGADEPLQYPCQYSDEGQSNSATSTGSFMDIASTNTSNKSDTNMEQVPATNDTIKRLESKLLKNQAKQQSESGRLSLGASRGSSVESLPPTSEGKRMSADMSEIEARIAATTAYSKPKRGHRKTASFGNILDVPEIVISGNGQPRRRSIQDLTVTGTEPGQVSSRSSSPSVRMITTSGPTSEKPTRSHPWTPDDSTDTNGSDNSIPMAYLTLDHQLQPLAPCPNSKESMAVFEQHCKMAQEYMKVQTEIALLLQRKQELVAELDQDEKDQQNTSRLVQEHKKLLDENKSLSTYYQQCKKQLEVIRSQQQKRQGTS
T1 sequence (Q15750 1-504 partner): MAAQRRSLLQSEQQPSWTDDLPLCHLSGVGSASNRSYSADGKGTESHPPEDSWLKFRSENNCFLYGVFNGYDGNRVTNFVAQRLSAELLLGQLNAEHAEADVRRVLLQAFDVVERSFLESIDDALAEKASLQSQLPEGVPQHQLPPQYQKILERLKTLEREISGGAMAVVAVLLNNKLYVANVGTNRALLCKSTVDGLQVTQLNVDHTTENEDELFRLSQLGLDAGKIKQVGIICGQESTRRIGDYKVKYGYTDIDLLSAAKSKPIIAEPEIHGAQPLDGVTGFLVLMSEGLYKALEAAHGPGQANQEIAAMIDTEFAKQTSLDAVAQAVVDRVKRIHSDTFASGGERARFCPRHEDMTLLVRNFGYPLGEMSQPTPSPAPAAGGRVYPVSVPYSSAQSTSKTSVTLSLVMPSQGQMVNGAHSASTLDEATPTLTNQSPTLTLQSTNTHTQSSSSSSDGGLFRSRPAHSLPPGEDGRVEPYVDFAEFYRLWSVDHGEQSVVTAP

[7] = tested on: Raji; assay: AlamarBlue proliferation assay, GI50; assay type: cell-based, human; conditions: 72 hours
Protocol: as §1

[8] = tested on: HEL92.1.7; assay: AlamarBlue proliferation assay, GI50; assay type: cell-based; conditions: Homo sapiens, HEL 92.1.7, 72 hours, Table 4, read-out: GI50 HEL92.1.7 Erythroleukemia
Protocol: as §1

[9] = tested on: DOHH2; assay: AlamarBlue proliferation assay, GI50; assay type: cell-based; conditions: Homo sapiens, DOHH-2, 72 hours, Table 4, read-out: GI50 DOHH2 FL
Protocol: as §1

[10] = tested on: KG1a; assay: AlamarBlue proliferation assay, GI50; assay type: cell-based; conditions: Homo sapiens, KG-1a, 72 hours, Table 4, read-out: GI50 KG1a AML
Protocol: as §1

[11] = tested on: Karpas231; assay: AlamarBlue proliferation assay, GI50; assay type: cell-based; conditions: Homo sapiens, 72 hours, Table 4, read-out: GI50 Karpas231 B-ALL
Protocol: as §1

[12] = tested on: Jurkat; assay: AlamarBlue proliferation assay, GI50; assay type: cell-based; conditions: Homo sapiens, 72 hours, Table 4, read-out: GI50 Jurkat T-ALL
Protocol: as §1

[13] = tested on: MEC1; assay: AlamarBlue proliferation assay, GI50; assay type: cell-based; conditions: Homo sapiens, 72 hours
Protocol: as §1

[14] = tested on: ARH77; assay: AlamarBlue proliferation assay, GI50; assay type: cell-based; conditions: Homo sapiens, ARH-77, 72 hours
Protocol: as §1

[15] = tested on: WSU-NHL; assay: AlamarBlue proliferation assay, GI50; assay type: cell-based; conditions: Homo sapiens, 72 hours, Table 4, read-out: GI50 WSU-NHL B-NHL
Protocol: as §1

[16] = tested on: SUDHL4; assay: AlamarBlue proliferation assay, GI50; assay type: cell-based; conditions: Homo sapiens, SU-DHL-4, 72 hours, Table 4, read-out: GI50 SUDHL4 DLBCL
Protocol: as §1

[17] = tested on: OCI-LY19; assay: AlamarBlue proliferation assay, GI50; assay type: cell-based; conditions: Homo sapiens, 72 hours, Table 4, read-out: GI50 OCI-LY19 DLBCL
Protocol: as §1

Q: Which GI50 [1] does the source give for `COC(C)(C)CNCc1ccc(-c2cc(NC(N)=O)c(C(N)=O)s2)cc1` [Compound 4, 3-[(aminocarbonyl)amino]-5-(4-{[(2-methoxy-2-methylpropyl)amino]methyl}phenyl)thiophene-2-carboxamide] here?
A: The GI50 was 910 nM.

Q: And the GI50 [2]?
A: Its GI50 is 350 nM.

Q: What about the GI50 [3] of the same molecule?
A: The GI50 was 1950 nM.

Q: And the GI50 [4]?
A: The GI50 was 210 nM.

Q: What about the GI50 [5] of the same molecule?
A: Its GI50 is 310 nM.

Q: And the IC50 ([6]; Table 4, read-out: TAK1 pIC50 (enzyme) (converted))?
A: The IC50 was 63.1 nM.

Q: What about the “TAK1 pIC50” value ([6]; Table 5) of the same molecule?
A: The value was 7.2.

Q: What about the GI50 ([7]; Table 6, read-out: GI50 Raji Burkitts Lymphoma) of the same molecule?
A: The GI50 was greater than 30000 nM.

Q: What about the GI50 ([7]; Homo sapiens, Raji, Table 4, read-out: GI50 Raji Burkitts Lymphoma) of the same molecule?
A: Its GI50 is greater than 30000 nM.

Q: What about the GI50 [8] of the same molecule?
A: Its GI50 is 1470 nM.

Q: What about the GI50 [9] of the same molecule?
A: Its GI50 is 101 nM.

Q: And the GI50 [10]?
A: The GI50 was 1090 nM.

Q: And the GI50 [11]?
A: The GI50 was 60 nM.

Q: And the GI50 [12]?
A: Its GI50 is 10100 nM.

Q: What about the GI50 ([13]; Table 4, read-out: GI50 MEC1 B-CLL) of the same molecule?
A: The GI50 was 2990 nM.

Q: What about the GI50 ([13]; Table 6, read-out: GI50 MEC-1 B-CLL) of the same molecule?
A: The GI50 was 2990 nM.

Q: And the GI50 ([14]; Table 4, read-out: GI50 ARH77 Plasma cell leukemia)?
A: Its GI50 is 3720 nM.

Q: What about the GI50 ([14]; Table 5, read-out: GI50 ARH-77 plasma cell leukemia) of the same molecule?
A: Its GI50 is 3720 nM.

Q: And the GI50 [15]?
A: The GI50 was 270 nM.

Q: What about the GI50 [16] of the same molecule?
A: Its GI50 is 3080 nM.

Q: And the GI50 [17]?
A: Its GI50 is 54 nM.
